Laboratory results taken from patent US11459337B2, “Isothiazolo[5,4-D]pyrimidine compound as IRAK4 inhibitor” (priority 2018, dated 2022).
Where two headings read alike, the source gives them in different places.

Experiments:
human IRAK4 = human IRAK4 (Homo sapiens (Human), UniProt Q9NWZ3); assay: 33P-labeled kinase activity assay (Reaction Biology Corp), in vitro enzymatic activity; format: biochemical; details: 20 μM ATP, 3 nM kinase, MBP substrate
Protocol: The inhibitory activity of the test compounds against human IRAK4 was evaluated by measuring IC50 values in a ^33P-labeled kinase activity assay (Reaction Biology Corp). Buffer conditions: 20 mM Hepes (pH 7.5), 10 mM MgCl2, 1 mM EGTA, 0.02% Brij35, 0.02 mg/mL BSA, 0.1 mM Na3VO4, 2 mM DTT, 1% DMSO. Procedures: The test compound was dissolved in DMSO at room temperature to prepare a 10 mM solution for later use. The substrate was dissolved in fresh buffer, to which the kinase was added and mixed well. The DMSO solution containing the test compound was added to the above mixed reaction system by an acoustic technique (Echo 550). The concentrations of the compounds in reaction system were 10 μM, 3.33 μM, 1.11 μM, 0.370 μM, 0.123 μM, 41.2 nM, 13.7 nM, 4.57 nM, 1.52 nM, and 0.508 nM. After 15 minutes of incubation, the reaction was started by adding ^33P-ATP (activity: 0.01 μCi/μL; the corresponding concentration is listed in Table 1). Supplier's catalog number, lot number and concentration information in the reaction system for IRAK4 and its substrate are listed in Table 1. After 120 minutes of reaction at room temperature, the resulting solution was loaded on P81 ion exchange chromatography paper sheet (Whatman #3698-915). After repeated washing with 0.75% phosphoric acid solution, the radioactivity of the phosphorylated substrate residue on the paper sheet was measured. The kinase activity data are shown as a comparison of the kinase activity of the test compound and the kinase activity of the blank (DMSO only) and a curve was fitted using Prism4 software (GraphPad) to give IC50 values, with the experimental results shown in Table 2. [table]

THP-1 cells = assay: TNF-α ELISA assay in LPS-stimulated THP-1 cells; format: cell-based, human; details: TNF-α in supernatant, 150 ng/mL LPS
Protocol: TNF-α ELISA Assay in THP-1 Cells THP-1 human acute unicellular leukemia cells were purchased from ATCC (Cat #TIB-202) and incubated in a 37° C., 5% CO2 incubator. The medium was RPMI1640 (Gibco, Cat #22400-105), the supplementary was 10% FBS (Gibco, Cat #10091148); 1% PenStrep (Gibco, Cat #15140); 0.05 mM 2-mercaptoethanol (Sigma, Cat #M6250). TNF-α content in the culture supernatant was measured by a TNF-α Elisa kit. TNF-α was produced by stimulation of THP-1 cells with 150 ng/mL LPS (Sigma, Cat #L6529). Normal THP-1 cells in logarithmic phase were inoculated in 96-well plates (Corning #3599) at a certain concentration (1×10^5/100 μL) and then incubated in an incubator. After two hours, 16.7 μL of test compound of different concentrations (8×final concentration) was added and the mixture was incubated. After one hour, 16.7 μL of 1200 ng/mL LPS was added and the mixture was incubated. After 18 hours, the culture was centrifuged and the supernatant was collected. The TNF-α content was measured by a TNF-α Elisa kit. Finally, the OD signals (OD450-OD570) were read on an envision plate reader. The OD450-OD570 signals were converted to percent inhibition. Inhibition %=(ZPE−sample)/(ZPE−HPE)×100. “HPE” represents the OD450-OD570 signal value of the control without LPS-stimulated cells, and “ZPE” represents the OD450-OD570 signal value of the control with LPS-stimulated cells. IC50 values for compounds were calculated by XLFit in the Excel. Y=Bottom+(Top−Bottom)/(1+(IC50/X)^HillSlope). Equation: […]

[1] = Pharmacokinetic study of oral and intravenous test compounds in SD rats; format: in vivo; details: rat, plasma, SD male rats; for AUC(0-t): read-out: Area under plasma concentration-time curve AUC0-last
Protocol: Pharmacokinetic Study of Oral and Intravenous Test Compounds in SD Rats The test compound was mixed with a solution containing 10% of methyl pyrrolidone, 10% of polyethylene glycol stearate and 80% of water. The mixture was vortexed and sonicated to prepare a 1.5 mg/mL clarified solution, which was then filtered through a microporous membrane for later use. SD male rats aged 7 to 10 weeks were selected and administered intravenously with a dose of the candidate compound at 3 mg/kg. The test compound was mixed with 0.5% aqueous methylcellulose solution. The mixture was vortexed and sonicated to prepare a 2 mg/mL suspension for later use. SD male rats aged 7 to 10 weeks were selected and orally administered with a dose of the candidate compound at 10 mg/kg. Whole blood was collected at certain time points, and plasma was separated. The drug concentration was measured by LC-MS/MS, and pharmacokinetic parameters were calculated using Phoenix WinNonlin software (Pharsight, USA).

human IRAK4, sequence (Q9NWZ3 whole entry): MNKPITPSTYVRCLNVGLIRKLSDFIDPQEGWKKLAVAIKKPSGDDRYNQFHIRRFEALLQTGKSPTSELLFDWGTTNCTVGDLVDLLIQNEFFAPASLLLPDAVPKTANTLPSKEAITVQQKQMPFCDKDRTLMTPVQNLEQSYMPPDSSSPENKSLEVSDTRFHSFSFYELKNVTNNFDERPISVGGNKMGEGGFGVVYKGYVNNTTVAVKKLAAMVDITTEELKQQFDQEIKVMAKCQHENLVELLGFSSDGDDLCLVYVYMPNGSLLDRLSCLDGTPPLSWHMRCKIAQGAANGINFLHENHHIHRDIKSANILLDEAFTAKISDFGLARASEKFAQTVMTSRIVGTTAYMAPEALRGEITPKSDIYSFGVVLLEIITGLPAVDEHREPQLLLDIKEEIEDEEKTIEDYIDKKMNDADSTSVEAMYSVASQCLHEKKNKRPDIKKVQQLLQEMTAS

Row | Compound | IC50 (human IRAK4) | IC50 (THP-1 cells; Homo sapiens, THP-1, 18 h) | also measured
1 | Cc1nsc2nc(Nc3cnn(C4CCOCC4)c3)nc(O[C@H]3CC[C@H](N4CCOCC4)CC3)c12 [WX002] | 89.5 nM |  | 
2 | Cn1cc(Nc2nc(N[C@H]3CC[C@H](N4CCOCC4)CC3)c3c(C4CCOCC4)nsc3n2)cn1 [WX005] | 8.7 nM |  | 
3 | Cc1nsc2nc(Nc3cnn([C@H]4CCOC4)c3)nc(N[C@H]3CC[C@H](N4CCOCC4)CC3)c12 [WX006] | 9.9 nM | 486 nM | 
4 | Cc1nsc2nc(Nc3cnn(C4CCOC4)c3)nc(N[C@H]3CC[C@H](N4CCOCC4)CC3)c12 (stereo partly shown) [WX008] | 27.2 nM |  | IC50 (THP-1 cells; 18 hours): 279 nM
5 | Cc1nsc2nc(Nc3cnn(CCO)c3)nc(N[C@H]3CC[C@H](N4CCOCC4)CC3)c12 [WX010] | 45.9 nM |  | 
6 | Cc1nsc2nc(Nc3cnn(CC(=O)O)c3)nc(N[C@H]3CC[C@H](N4CCOCC4)CC3)c12 [WX011] | 357 nM |  | 
7 | Cc1nsc2nc(Nc3cnn(C4CCOCC4)c3)nc(N(C)[C@H]3CC[C@H](N4CCOCC4)CC3)c12 [WX013] | 60.1 nM |  | 
8 | Cc1nsc2nc(Nc3cnn(C[C@H]4COCCO4)c3)nc(N[C@H]3CC[C@H](N4CCOCC4)CC3)c12 [WX014] | 30.3 nM | 663 nM | 
9 | Cc1nsc2nc(Nc3cnn(C[C@@H]4COCCO4)c3)nc(N[C@H]3CC[C@H](N4CCOCC4)CC3)c12 [WX015] | 20.5 nM | 952 nM | 
10 | Cc1nsc2nc(Nc3cnn(C4CCOCC4)c3)nc(N[C@H]3CC[C@H](N4CCNCC4)CC3)c12 [WX025] | 23.6 nM |  | 
11 | CC(=O)N1CCN([C@H]2CC[C@H](Nc3nc(Nc4cnn(C5CCOCC5)c4)nc4snc(C)c34)CC2)CC1 [WX027] | 3.3 nM | 639 nM | 
12 | CCOC(=O)N1CCN([C@H]2CC[C@H](Nc3nc(Nc4cnn(C5CCOCC5)c4)nc4snc(C)c34)CC2)CC1 [WX028] | 1.6 nM | 234 nM | 
13 | Cc1nsc2nc(Nc3cnn(C4CCOCC4)c3)nc(N[C@H]3CC[C@H](N4CCN(C(C)C)CC4)CC3)c12 [WX029] | 3.8 nM |  | 
14 | Cc1nsc2nc(Nc3cnn(C4CCOCC4)c3)nc(N[C@H]3CC[C@H](N4CCN(C)CC4)CC3)c12 [WX030] | 7.5 nM | 308 nM | 
15 | Cc1nsc2nc(Nc3cnn(C4CCOCC4)c3)nc(N[C@H]3CC[C@H](N4CCN(C5CC5)CC4)CC3)c12 [WX031] | 2.4 nM | 317 nM | 
16 | COC(=O)N1CCN([C@H]2CC[C@H](Nc3nc(Nc4cnn(C5CCOC5)c4)nc4snc(C)c34)CC2)CC1 (stereo partly shown) [WX032] | 15.2 nM |  | 
17 | COC(=O)N1CCN([C@H]2CC[C@H](Nc3nc(Nc4cnn([C@@H]5CCOC5)c4)nc4snc(C)c34)CC2)CC1 [WX033] | 12.8 nM |  | 
18 | COC(=O)N1CCN([C@H]2CC[C@H](Nc3nc(Nc4cnn([C@H]5CCOC5)c4)nc4snc(C)c34)CC2)CC1 [WX034] | 12.8 nM |  | 
19 | COC(=O)N1CCN([C@H]2CC[C@H](Nc3nc(Nc4cnn(C)c4)nc4snc(C)c34)CC2)CC1 [WX035] | 10.7 nM |  | 

Row | Compound | IC50 (human IRAK4) | IC50 (THP-1 cells; Homo sapiens, THP-1, 18 h) | also measured
20 | Cc1nsc2nc(Nc3cnn(C4CCOCC4)c3)nc(NC3CCC(N4CCCNCC4)CC3)c12 (stereo not shown) [WX036] | 5.5 nM | 4160 nM | 
21 | Cc1nsc2nc(Nc3cnn(C4CCOCC4)c3)nc(NC3CCC(N4CCCN(C)CC4)CC3)c12 (stereo not shown) [WX037] | 9.2 nM | 296 nM | 
22 | CC(=O)N1CCCN(C2CCC(Nc3nc(Nc4cnn(C5CCOCC5)c4)nc4snc(C)c34)CC2)CC1 (stereo not shown) [WX038] | 1.3 nM | 216 nM | 
23 | COC(=O)N1CCCN(C2CCC(Nc3nc(Nc4cnn(C5CCOCC5)c4)nc4snc(C)c34)CC2)CC1 (stereo not shown) [WX039] | 7.9 nM | 139 nM | 
24 | Cc1nsc2nc(Nc3cnn(C4CCOCC4)c3)nc(N[C@H]3CC[C@H](N4CC5CC(C4)N5)CC3)c12 [WX040] | 30 nM |  | 
25 | Cc1nsc2nc(Nc3cnn(C4CCOCC4)c3)nc(N[C@H]3CC[C@H](N4CC5CC(C4)N5C)CC3)c12 [WX041] | 21.4 nM |  | 
26 | CC(=O)N1C2CC1CN([C@H]1CC[C@H](Nc3nc(Nc4cnn(C5CCOCC5)c4)nc4snc(C)c34)CC1)C2 [WX043] | 12.2 nM |  | 
27 | Cc1nsc2nc(Nc3cnn(C4CCOCC4)c3)nc(N[C@H]3CC[C@H](N4C[C@H]5C[C@@H]4CN5C)CC3)c12 [WX045] | 278 nM |  | 
28 | COC(=O)N1C[C@H]2C[C@@H]1CN2[C@H]1CC[C@H](Nc2nc(Nc3cnn(C4CCOCC4)c3)nc3snc(C)c23)CC1 [WX047] | 29.6 nM | 889 nM | 
29 | Cc1nsc2nc(Nc3cnn(C4CCOCC4)c3)nc(N[C@H]3CC[C@H](N4CCNC(=O)C4)CC3)c12 [WX048] | 460 nM |  | 
30 | Cc1nsc2nc(Nc3cnn(C4CCOCC4)c3)nc(N[C@H]3CC[C@H](N4CCNCC4C)CC3)c12 (stereo partly shown) [WX051] | 13.7 nM |  | 
31 | Cc1nsc2nc(Nc3cnn(C4CCOCC4)c3)nc(N[C@H]3CC[C@H](N4CCC(O)CC4)CC3)c12 [WX052] | 1.8 nM |  | 
32 | Cc1nsc2nc(Nc3cnn(C4CCOCC4)c3)nc(N[C@H]3CC[C@H](N4CCOCC4=O)CC3)c12 [WX054] | 363 nM |  | 
33 | O=C(O)Cc1nsc2nc(Nc3cnn(C4CCOCC4)c3)nc(N[C@H]3CC[C@H](N4CCOCC4)CC3)c12 [WX056] | 17 nM |  | 
34 | Cc1nsc2nc(Nc3cnn(C4CCOCC4)c3)nc(N[C@H]3CC[C@H](N4CCC(C(=O)O)CC4)CC3)c12 [WX057] | 5 nM |  | 
35 | Cc1nsc2nc(Nc3cnn(C4CCOCC4)c3)nc(N[C@H]3CC[C@H](N4CCC(N(C)C)CC4)CC3)c12 [WX058] | 2.1 nM |  | 
36 | COC(=O)N1CCN([C@H]2CC[C@H](Nc3nc(Nc4cnn(C5CCC(F)(F)CC5)c4)nc4snc(C)c34)CC2)CC1 [WX059] | 1.1 nM |  | 
37 | Cc1nsc2nc(Nc3cnn(C4CCOCC4)c3)nc(N[C@H]3CC[C@H](N4CC(O)C4)CC3)c12 [WX060] | 7.3 nM |  | 
38 | NC(=O)C[C@H]1CCc2sc3ncnc(O[C@H]4CC[C@H](N5CCOCC5)CC4)c3c21 [WXR2, ND-2110, reference compound] |  |  | Vd ([1]; Intravenous, 3 mg/kg, read-out: Apparent volume of distribution Vdss): 1.6 L/kg; AUC(0-t) ([1]; Intravenous, 3 mg/kg): 3.68 µM·h; clearance ([1]; Intravenous, 3 mg/kg, read-out: Clearance CL): 33.2 mL/min/kg; half-life ([1]; Intravenous, 3 mg/kg, read-out: Half life T1/2 (converted)): 78 min; AUC(0-t) ([1]; Oral, 10 mg/kg): 2.13 µM·h; bioavailability ([1]; Oral, 10 mg/kg, read-out: Bioavailability F): 18%; Cmax ([1]; Oral, 10 mg/kg, read-out: Peak concentration Cmax): 893 nM; Tmax ([1]; Oral, 10 mg/kg, read-out: Time to peak Tmax): 36 min
